Experiments:
Assay in all cases: KAM-matrix competition in K562 lysate;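 on 0.001 uM KAM: median log10 fold change of treatment over DMSO control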;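 on 0.01 uM KAM: median log10 fold change of treatment over DMSO control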;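 on 0.1 uM KAM: median log10 fold change of treatment over DMSO control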;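 on 1 uM KAM: median log10 fold change of treatment over DMSO control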;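 on 10 uM KAM: median log10 fold change of treatment over DMSO control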
Assay type in all cases: binding
[1] = target: T1, NME7 (Homo sapiens, UniProt Q9Y5B8);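 on 0.001 uM KAM: median log10 fold change of treatment over DMSO control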;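 on 0.01 uM KAM: median log10 fold change of treatment over DMSO control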;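 on 0.1 uM KAM: median log10 fold change of treatment over DMSO control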;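 on 1 uM KAM: median log10 fold change of treatment over DMSO control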;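 on 10 uM KAM: median log10 fold change of treatment over DMSO control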
T1 construct: endogenous in cells; host or cells: K562
T1 sequence (Q9Y5B8 1-376): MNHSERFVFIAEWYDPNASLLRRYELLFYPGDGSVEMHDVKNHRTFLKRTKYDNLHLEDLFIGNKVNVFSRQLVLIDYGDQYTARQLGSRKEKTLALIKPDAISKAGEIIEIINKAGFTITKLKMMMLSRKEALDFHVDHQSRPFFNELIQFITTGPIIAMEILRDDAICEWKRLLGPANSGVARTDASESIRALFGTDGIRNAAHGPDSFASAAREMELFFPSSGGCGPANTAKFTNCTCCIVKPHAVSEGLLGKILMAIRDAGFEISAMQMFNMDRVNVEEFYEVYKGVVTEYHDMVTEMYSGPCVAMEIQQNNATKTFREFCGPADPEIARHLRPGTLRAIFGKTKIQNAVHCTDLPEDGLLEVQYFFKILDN
Experimental: (§1) Supplement 12953_2017_125_MOESM1_ESM.zip/MS_Supp Info.xlsx, sheet "KAM" | column: 10 uM KAM; 1 uM KAM; 0.1 uM KAM; 0.01 uM KAM; 0.001 uM KAM; RB50

[2] = target: T2, EPHA2 (Homo sapiens, UniProt P29317);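 on 0.001 uM KAM: median log10 fold change of treatment over DMSO control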;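 on 0.01 uM KAM: median log10 fold change of treatment over DMSO control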;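 on 0.1 uM KAM: median log10 fold change of treatment over DMSO control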;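 on 1 uM KAM: median log10 fold change of treatment over DMSO control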;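 on 10 uM KAM: median log10 fold change of treatment over DMSO control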
T2 construct: endogenous in cells; host or cells: K562
T2 sequence (P29317 24-976): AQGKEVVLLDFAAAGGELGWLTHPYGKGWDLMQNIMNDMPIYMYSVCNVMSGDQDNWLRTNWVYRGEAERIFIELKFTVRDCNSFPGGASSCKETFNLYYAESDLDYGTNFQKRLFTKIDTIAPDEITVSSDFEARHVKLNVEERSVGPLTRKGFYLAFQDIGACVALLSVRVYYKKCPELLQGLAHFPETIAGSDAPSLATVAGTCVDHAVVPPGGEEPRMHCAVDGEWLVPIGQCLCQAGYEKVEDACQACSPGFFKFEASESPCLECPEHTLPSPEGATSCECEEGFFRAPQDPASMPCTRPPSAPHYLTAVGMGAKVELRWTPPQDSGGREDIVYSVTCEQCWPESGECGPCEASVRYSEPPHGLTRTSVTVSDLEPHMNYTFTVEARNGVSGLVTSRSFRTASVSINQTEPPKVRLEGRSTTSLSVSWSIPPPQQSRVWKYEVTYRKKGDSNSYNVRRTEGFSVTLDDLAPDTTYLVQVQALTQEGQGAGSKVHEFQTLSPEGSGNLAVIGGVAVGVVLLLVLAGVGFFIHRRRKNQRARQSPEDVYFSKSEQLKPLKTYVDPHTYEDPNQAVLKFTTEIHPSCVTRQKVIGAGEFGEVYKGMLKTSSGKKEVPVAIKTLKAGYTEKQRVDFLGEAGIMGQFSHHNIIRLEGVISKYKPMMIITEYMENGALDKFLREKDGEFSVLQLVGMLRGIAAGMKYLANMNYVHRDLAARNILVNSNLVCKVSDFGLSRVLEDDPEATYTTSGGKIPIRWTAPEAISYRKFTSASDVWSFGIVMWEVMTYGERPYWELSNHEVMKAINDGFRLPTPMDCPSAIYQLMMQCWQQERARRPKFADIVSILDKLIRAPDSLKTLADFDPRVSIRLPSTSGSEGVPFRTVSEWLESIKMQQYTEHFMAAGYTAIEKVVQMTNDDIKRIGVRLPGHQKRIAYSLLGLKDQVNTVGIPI
Experimental: as §1

[3] = target: T3, PRKCA (Homo sapiens, UniProt P17252)
T3 construct: endogenous in cells; host or cells: K562 lysate
Experimental: as §1

[4] = target: T4, LATS2 (Homo sapiens, UniProt Q9NRM7)
T4 construct: endogenous in cells; host or cells: K562
T4 sequence (Q9NRM7 1-1088): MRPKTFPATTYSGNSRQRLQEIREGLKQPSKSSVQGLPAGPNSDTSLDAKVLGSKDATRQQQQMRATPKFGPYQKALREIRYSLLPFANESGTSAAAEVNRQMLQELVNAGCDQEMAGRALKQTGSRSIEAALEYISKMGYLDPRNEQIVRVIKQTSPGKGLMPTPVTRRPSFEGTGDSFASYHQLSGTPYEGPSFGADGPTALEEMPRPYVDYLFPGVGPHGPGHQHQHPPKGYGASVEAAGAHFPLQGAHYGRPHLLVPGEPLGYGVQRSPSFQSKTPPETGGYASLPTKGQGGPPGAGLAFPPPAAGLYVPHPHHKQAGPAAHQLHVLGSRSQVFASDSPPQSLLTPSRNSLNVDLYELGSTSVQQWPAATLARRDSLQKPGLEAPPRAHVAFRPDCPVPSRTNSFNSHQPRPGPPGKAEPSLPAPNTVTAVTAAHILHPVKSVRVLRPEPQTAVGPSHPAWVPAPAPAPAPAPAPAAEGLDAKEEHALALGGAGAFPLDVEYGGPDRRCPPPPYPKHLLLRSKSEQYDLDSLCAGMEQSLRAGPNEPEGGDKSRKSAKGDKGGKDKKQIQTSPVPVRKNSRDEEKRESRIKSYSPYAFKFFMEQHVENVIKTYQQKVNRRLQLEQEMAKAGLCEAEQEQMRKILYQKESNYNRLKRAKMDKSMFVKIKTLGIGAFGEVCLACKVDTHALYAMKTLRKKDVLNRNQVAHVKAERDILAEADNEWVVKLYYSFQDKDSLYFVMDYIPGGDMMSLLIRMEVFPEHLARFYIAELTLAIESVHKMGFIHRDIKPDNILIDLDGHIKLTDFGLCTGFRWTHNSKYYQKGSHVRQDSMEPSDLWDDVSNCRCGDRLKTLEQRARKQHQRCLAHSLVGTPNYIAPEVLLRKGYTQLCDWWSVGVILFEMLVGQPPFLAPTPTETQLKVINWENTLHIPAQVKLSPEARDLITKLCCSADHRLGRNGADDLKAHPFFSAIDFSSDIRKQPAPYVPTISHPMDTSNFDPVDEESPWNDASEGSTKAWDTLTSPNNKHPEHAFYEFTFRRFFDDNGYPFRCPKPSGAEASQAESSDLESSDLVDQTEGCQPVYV
Experimental: as §1

[5] = target: T5, PDIK1L (Homo sapiens, UniProt Q8N165)
T5 construct: endogenous in cells; host or cells: K562
T5 sequence (Q8N165 whole entry): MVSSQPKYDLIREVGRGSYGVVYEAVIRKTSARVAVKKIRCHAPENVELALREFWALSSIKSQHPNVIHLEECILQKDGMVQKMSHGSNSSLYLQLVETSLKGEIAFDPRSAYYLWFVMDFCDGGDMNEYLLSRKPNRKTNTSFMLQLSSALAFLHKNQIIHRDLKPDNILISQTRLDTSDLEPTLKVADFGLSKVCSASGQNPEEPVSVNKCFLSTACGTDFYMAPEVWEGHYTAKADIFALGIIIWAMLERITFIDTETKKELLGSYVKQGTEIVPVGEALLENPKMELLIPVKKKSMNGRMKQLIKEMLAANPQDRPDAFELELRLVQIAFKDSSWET
Experimental: as §1

[6] = KAM 0.001-10 uM, read-out: RB50 (the source's name)
[7] = read-out: RB50 (the source's name)

`N#CCc1ccc(Nc2nc(NCCCN)cc(Nc3cc(C4CC4)[nH]n3)n2)cc1` [KAM] was tested, and the IC50 [1, 6] was over 10000 nM, the “0.001 uM KAM” value ([1]; relative to 0 uM KAM = 0) was -0.02057 and the “0.01 uM KAM” value ([1]; relative to 0 uM KAM = 0) was -0.007814. For the same molecule, the “0.1 uM KAM” value ([1]; relative to 0 uM KAM = 0) was 0.03797, the “1 uM KAM” value ([1]; relative to 0 uM KAM = 0) was 0.05362 and the “10 uM KAM” value ([1]; relative to 0 uM KAM = 0) was 0.03977. The IC50 [2, 6] was over 10000 nM, the “0.001 uM KAM” value ([2]; relative to 0 uM KAM = 0) was -0.04778 and the “0.01 uM KAM” value ([2]; relative to 0 uM KAM = 0) was 0.0608. The “0.1 uM KAM” value ([2]; relative to 0 uM KAM = 0) was 0.1233, the “1 uM KAM” value ([2]; relative to 0 uM KAM = 0) was 0.3139 and the “10 uM KAM” value ([2]; relative to 0 uM KAM = 0) was 0.0956. For the same molecule, the “median Log10 fold change” value ([3]; 0.001 uM KAM) was -0.02328, the “median Log10 fold change” value ([3]; 0.01 uM KAM) was -0.03535 and the “median Log10 fold change” value ([3]; 0.1 uM KAM) was -0.1377. The “median Log10 fold change” value ([3]; 1 uM KAM) was -0.1636, the “median Log10 fold change” value ([3]; 10 uM KAM) was -0.4501 and the IC50 [3, 7] was 3160 nM. The “median Log10 fold change” value ([4]; 0.001 uM KAM) was 0.01099, the “median Log10 fold change” value ([4]; 0.01 uM KAM) was -0.05599 and the “median Log10 fold change” value ([4]; 0.1 uM KAM) was -0.2153. The “median Log10 fold change” value ([4]; 1 uM KAM) was -0.4993, the “median Log10 fold change” value ([4]; 10 uM KAM) was -0.5621 and the IC50 [4, 7] was 251 nM. The “median Log10 fold change” value ([5]; 0.001 uM KAM) was -0.01583, the “median Log10 fold change” value ([5]; 0.01 uM KAM) was -0.03169 and the “median Log10 fold change” value ([5]; 0.1 uM KAM) was -0.1434. The “median Log10 fold change” value ([5]; 1 uM KAM) was -0.3076, the “median Log10 fold change” value ([5]; 10 uM KAM) was -0.3596 and the IC50 [5, 7] was 1310 nM.
